Reference: patent US9975903B2, “Condensed heterocyclic compound” (Takeda Pharmaceutical Company Limited, priority 2014, dated 2018)
Counter-ions that a name gives are not always drawn.

What follows are molecules tested against T1, Human recombinant enteropeptidase (Homo sapiens, UniProt P98073) (assay: Human enteropeptidase inhibitory activity (Test Example 1)). Details: 3.3 μM test compound; inhibition rate from fluorescence intensity at 2 hours after the start of the reaction.
T1 construct: purchased ITSI-Biosciences LLC #REN-260
Format: biochemical
In short: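 Recombinant human enteropeptidase in 50 mM Tricine pH 8.0, 0.01% Tween 20, 10 mM CaCl2, with a 5FAM/CPQ2-quenched peptide substrate (2.1 μM solution before mixing). Compound came from 1 mM DMSO stock diluted 100-fold in buffer. Fluorescence (ex 485/em 535 nm) at 2 h gave % inhibition versus no-compound and no-enzyme controls.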

T1 sequence (P98073 whole entry): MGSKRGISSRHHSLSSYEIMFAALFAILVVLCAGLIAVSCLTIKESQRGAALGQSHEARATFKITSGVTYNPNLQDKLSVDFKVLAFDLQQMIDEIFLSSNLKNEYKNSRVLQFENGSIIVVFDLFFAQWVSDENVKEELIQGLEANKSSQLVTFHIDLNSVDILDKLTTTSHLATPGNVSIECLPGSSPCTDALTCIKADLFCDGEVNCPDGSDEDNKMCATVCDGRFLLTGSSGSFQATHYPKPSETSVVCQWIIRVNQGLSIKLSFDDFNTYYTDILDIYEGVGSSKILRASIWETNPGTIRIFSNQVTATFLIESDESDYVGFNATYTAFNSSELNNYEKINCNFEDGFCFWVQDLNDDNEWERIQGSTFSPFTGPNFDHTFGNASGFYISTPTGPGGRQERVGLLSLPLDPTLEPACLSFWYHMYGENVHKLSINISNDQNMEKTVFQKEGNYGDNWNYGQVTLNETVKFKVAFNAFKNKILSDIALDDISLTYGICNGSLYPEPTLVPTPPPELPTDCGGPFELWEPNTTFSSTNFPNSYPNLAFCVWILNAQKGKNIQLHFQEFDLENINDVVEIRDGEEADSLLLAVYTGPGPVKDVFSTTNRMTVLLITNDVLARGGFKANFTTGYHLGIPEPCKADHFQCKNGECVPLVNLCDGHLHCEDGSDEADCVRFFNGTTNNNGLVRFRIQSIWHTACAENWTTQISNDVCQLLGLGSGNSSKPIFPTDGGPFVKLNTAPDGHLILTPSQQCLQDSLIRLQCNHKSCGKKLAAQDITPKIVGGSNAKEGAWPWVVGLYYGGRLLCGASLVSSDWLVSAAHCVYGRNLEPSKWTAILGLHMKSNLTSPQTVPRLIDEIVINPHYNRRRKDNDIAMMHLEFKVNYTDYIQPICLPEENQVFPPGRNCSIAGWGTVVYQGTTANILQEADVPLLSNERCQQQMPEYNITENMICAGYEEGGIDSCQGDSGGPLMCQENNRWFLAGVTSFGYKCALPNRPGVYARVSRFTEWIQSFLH

3.3 μM Inhibition [%] | Molecule
100 | 4-((((10- carbamimidamido- 13-oxo-6,7,8,13- tetrahydro- dibenzo[b,f] [1,4]dioxecin-4- yl)carbonyl) carboxymethyl) amino)methyl) thiophene-2- carboxylic acid [Example 125]

Same assay, conditions: 3.3 μM test compound; inhibition rate from fluorescence intensity at 2 hours after the start of the reaction; read-out: 3.3 μM Inhibition

Molecule | inhibition at 3.3 µM [%]
N=C(N)Nc1ccc2c(c1)CCCCc1cc3c(cc1OC2=O)OC[C@H]3CC(=O)NCCS(=O)(=O)O [Example 35, 2-((((10S)-3-carbamimidamido-15-oxo-5,7,8,10,11,15-hexahydro-6H-12,14-dioxabenzo[5,6]cyclodeca[1,2-f]inden-10-yl)acetyl)amino)ethane-sulfonic acid] | 90
N=C(N)Nc1ccc2c(c1)CCCCc1c(cc3c(c1C(=O)N[C@@H](CC(=O)O)C(=O)O)CCO3)OC2=O [Example 40, N-((3-Carbamimidamido-15-oxo-5,7,8,10,11,15-hexahydro-6H-12,14-dioxabenzo[5,6]cyclodeca[1,2-f]inden-9-yl)carbonyl)-L-aspartic acid] | 100
N=C(N)Nc1ccc2c(c1)CCCCOc1c(CCC(=O)N[C@@H](CC(=O)O)C(=O)O)cccc1OC2=O [Example 44, N-(3-(11-Carbamimidamido-14-oxo-7,8,9,14-tetrahydro-6H-dibenzo[b,f][1,4]dioxacycloundecin-4-yl)propanoyl)-L-aspartic acid trifluoroacetate] | 96
N=C(N)Nc1ccc2c(c1)CCCOc1c(cccc1C1=NOC(CC(=O)O)(C(=O)O)C1)OC2=O (centres unmarked) [Example 23, 3-(10-Carbamimidamido-13-oxo-6,7,8,13-tetrahydrodibenzo[b,f][1,4]dioxecin-4-yl)-5-(carboxymethyl)-4,5-dihydro-1,2-oxazole-5-carboxylic acid] | 102
N=C(N)Nc1ccc2c(c1)CCOc1c(cccc1C(=O)NCCS(=O)(=O)O)OC2=O [Example 15, 2-(((9-carbamimidamido-6-oxo-11,12-dihydro-6H-dibenzo[b,f][1,4]dioxonin-1-yl)carbonyl)amino) ethanesulfonic acid] | 101
N=C(N)Nc1ccc2c(c1)CCCOc1ccccc1OC2=O [Example 68, 1-(13-Oxo-6,7,8,13-tetrahydrodibenzo[b,f][1,4]dioxecin-10-yl)guanidine trifluoroacetate] | 83
N=C(N)Nc1ccc2c(c1)CCOc1c(cccc1C(=O)N[C@@H](CC(=O)O)C(=O)O)OC2=O [Example 13, N-((9-Carbamimidamido-6-oxo-11,12-dihydro-6H-dibenzo[b,f][1,4]dioxonin-1-yl)carbonyl)-L-aspartic acid trifluoroacetate] | 101
N=C(N)Nc1ccc2c(c1)COc1c(cccc1C(=O)N[C@@H](CC(=O)O)C(=O)O)OC2=O [Example 19, N-((9-Carbamimidamido-6-oxo-6,11-dihydrodibenzo[b,f][1,4]dioxocin-1-yl)carbonyl)-L-aspartic acid trifluoroacetate] | 99
N=C(N)Nc1ccc2c(c1)CCCOc1c(cccc1C(=O)N[C@@H](CS(=O)(=O)O)C(=O)O)OC2=O [Example 6, N-((10-Carbamimidamido-13-oxo-6,7,8,13-tetrahydrodibenzo[b,f][1,4]dioxecin-4-yl)carbonyl)-3-sulfo-L-alanine] | 101
N=C(N)Nc1ccc2c(c1)CCCCc1c(OCC(=O)N[C@@H](CC(=O)O)C(=O)O)cccc1OC2=O [Example 31, N-(((3-carbamimidamido-14-oxo-5,7,8,14-tetrahydro-6H-dibenzo[b,h]oxecin-9-yl)oxy)acetyl)-L-aspartic acid] | 101
N=C(N)Nc1ccc2c(c1)CCCOc1c(cccc1C(=O)N[C@H](CC(=O)O)C(=O)O)OC2=O [Example 2, N-((10-Carbamimidamido-13-oxo-6,7,8,13-tetrahydrodibenzo[b,f][1,4]dioxecin-4-yl)carbonyl)-D-aspartic acid] | 101
N=C(N)Nc1ccc2c(c1)CCCOc1c(cc(Cl)cc1C(=O)N[C@@H](CC(=O)O)C(=O)O)OC2=O [Example 66, N-((10-carbamimidamido-2-chloro-13-oxo-6,7,8,13-tetrahydro-dibenzo[b,f] [1,4]dioxecin-4-yl)carbonyl)-L-aspartic acid] | 101

Continued, values first:

inhibition at 3.3 µM [%] | Molecule
101 | C[C@@H](O)[C@H](NC(=O)c1cccc2c1OCCCc1cc(NC(=N)N)ccc1C(=O)O2)C(=O)O [Example 90, N-((10-carbamimidamido-13-oxo-6,7,8,13-tetrahydro-dibenzo[b,f] [1,4]dioxecin-4-yl)carbonyl)-L-threonine]
101 | Cc1cc2c(c(C(=O)N[C@@H](CC(=O)O)C(=O)O)c1)CCCCc1cc(NC(=N)N)ccc1C(=O)O2 [Example 72, N-((3-carbamimidamido-11-methyl-14-oxo-5,7,8,14-tetrahydro-6H-dibenzo[b,h]oxecin-9-yl)carbonyl)-L-aspartic acid]
100 | N=C(N)Nc1ccc2c(c1)CCCOc1c(cccc1C(=O)N(CC(=O)O)[C@@H](Cc1ccc(OCCN(CC(=O)O)CC(=O)O)cc1)C(=O)O)OC2=O [Example 108, O-(2-(Bis(carboxymethyl)amino)ethyl)-N-((10-carbamimidamido-13-oxo-6,7,8,13-tetrahydrodibenzo[b,f][1,4]dioxecin-4-yl)carbonyl)-N-(carboxymethyl)-L-tyrosine]
101 | N=C(N)Nc1ccc2c(c1)CCCOc1c(CCC(=O)N[C@@H](Cc3ccc(O)cc3)C(=O)O)cccc1OC2=O [Example 95, N-(3-(10-carbamimidamido-13-oxo-6,7,8,13-tetrahydro-dibenzo[b,f] [1,4]dioxecin-4-yl)propanoyl)-L-tyrosine]
101 | N=C(N)Nc1ccc2c(c1)CCCOc1c(CCC(=O)NC(CC(=O)O)CC(=O)O)cccc1OC2=O [Example 96, 3-((3-(10-carbamimidamido-13-oxo-6,7,8,13-tetrahydro-dibenzo[b,f] [1,4]dioxecin-4-yl)propanoyl)amino) pentanedioic acid]
100 | N=C(N)Nc1ccc2c(c1)CCCOc1c(ccc(CCC(=O)O)c1C(=O)N[C@@H](CC(=O)O)C(=O)O)OC2=O [Example 110, N-((10-Carbamimidamido-3-(2-carboxyethyl)-13-oxo-6,7,8,13-tetrahydrodibenzo[b,f][1,4]dioxecin-4-yl)carbonyl)-L-aspartic acid]
101 | CN(C(=O)c1c(CCC(=O)O)ccc2c1OCCCc1cc(NC(=N)N)ccc1C(=O)O2)[C@@H](CC(=O)O)C(=O)O [Example 118, N-((10-Carbamimidamido-3-(2-carboxyethyl)-13-oxo-6,7,8,13-tetrahydrodibenzo[b,f][1,4]dioxecin-4-yl)carbonyl)-N-methyl-L-aspartic acid]
101 | N=C(N)Nc1ccc2c(c1)CCCOc1c(cccc1C(=O)N(Cc1ccccc1)[C@@H](CC(=O)O)C(=O)O)OC2=O [Example 107, N-benzyl-N-((10-carbamimidamido-13-oxo-6,7,8,13-tetrahydro-dibenzo[b,f] [1,4]dioxecin-4-yl)carbonyl)-L-aspartic acid]
101 | N=C(N)Nc1ccc2c(c1)CCCOc1c(cccc1C(=O)N[C@@H](CO)C(=O)O)OC2=O [Example 86, N-((10-carbamimidamido-13-oxo-6,7,8,13-tetrahydro-dibenzo[b,f] [1,4]dioxecin-4-yl)carbonyl)-L-serine]
100 | N=C(N)Nc1ccc2c(c1)CCCOc1c(cccc1C(=O)N(CC(=O)O)CC(=O)N(CC(=O)O)Cc1cccc(C(=O)O)c1)OC2=O [Example 141, N-((10-Carbamimidamido-13-oxo-6,7,8,13-tetrahydrodibenzo[b,f][1,4]dioxecin-4-yl)carbonyl)-N-(carboxymethyl)glycyl-N-(3-carboxybenzyl)glycine]
101 | N=C(N)Nc1ccc2c(c1)CCCOc1c(ccc(CCC(=O)N(CC(=O)O)CC(=O)O)c1C(=O)N[C@@H](Cc1ccc(O)cc1)C(=O)O)OC2=O [Example 124, N-((3-(3-(bis(carboxymethyl)amino)-3-oxopropyl)-10-carbamimidamido-13-oxo-6,7,8,13-tetrahydro-dibenzo[b,f] [1,4]dioxecin-4-yl)carbonyl)-L-tyrosine]
101 | N=C(N)Nc1ccc2c(c1)CCCOc1cc(C(=O)N[C@@H](CC(=O)O)C(=O)O)ccc1OC2=O [Example 81, N-((10-carbamimidamido-13-oxo-6,7,8,13-tetrahydro-dibenzo[b,f] [1,4]dioxecin-3-yl)carbonyl)-L-aspartic acid]
99 | N=C(N)Nc1ccc2c(c1)CCCOc1c(cccc1C(=O)N(CC(=O)O)Cc1cccc(CN(CC(=O)O)CC(=O)O)c1)OC2=O [Example 116, N-(3-((Bis(carboxymethyl)amino)methyl)benzyl)-N-((10-carbamimidamido-13-oxo-6,7,8,13-tetrahydrodibenzo[b,f][1,4]dioxecin-4-yl)carbonyl)glycine]
101 | N=C(N)Nc1ccc2c(c1)CCCOc1c(ccc(CCC(=O)NC(CC(=O)O)CC(=O)O)c1C(=O)N[C@@H](Cc1ccc(O)cc1)C(=O)O)OC2=O [Example 123, 3-((3-(10-carbamimidamido-4-(((1S)-1-carboxy-2-(4-hydroxyphenyl)ethyl)carbamoyl)-13-oxo-6,7,8,13-tetrahydro-dibenzo[b,f] [1,4]dioxecin-3-yl)propanoyl)amino) pentanedioic acid]
95 | N=C(N)c1ccc2c(c1)CCCCc1c(C(=O)N[C@@H](CC(=O)O)C(=O)O)cccc1C(=O)O2 [Example 98, N-((10-carbamimidoyl-14-oxo-5,7,8,14-tetrahydro-6H-dibenzo[b,h]oxecin-4-yl)carbonyl)-L-aspartic acid]

Same assay, conditions: read-out: 3.3 μM Inhibition

Molecule | inhibition at 3.3 µM [%]
N=C(N)c1ccc2c(c1)CCc1ccccc1C(=O)O2 [Example 59, 6-Oxo-11,12-dihydro-6H-dibenzo[b,f]oxocine-2-carboximidamide trifluoroacetate] | 57
